Starred links: 1 amine or outer side, 2 acyl side, 3 side chain; linkers in the order of their positions; H or OH if unused. Residues, ends and D or L forms follow the SMILES beside them. *: point of attachment. AMC = Cc1cc(=O)oc2cc(N*)ccc12; Morpholide = C1CN(*)CCO1; CO = O=C([*:1])[*:2]
Key:
human kallikrein, hK1 = assay: Peptide-AMC cleavage by purified extracellular protease; format: biochemical; conditions: 0.2 mM substrate, PSA assay buffer pH 7.8
Procedure: (§1) The peptides discussed herein were custom synthesized by Enzyme Systems Products (Dublin, Calif.) and, after HPLC separation and purification to >95%, the molecular weights were confirmed by mass spectroscopy. All peptides had morpholinocarbonyl protecting the amino terminus and 7-amino-4-methylcoumarin (AMC) attached via an amide bond to the carboxyl group of the carboxy-terminal amino acid. Peptides were first dissolved in distilled water (5 mM) and then diluted into PSA assay buffer (50 mM Tris/0.1M NaCl pH 7.8). The glutamine-AMC peptide had the amino terminus and side chain amine unprotected and was obtained from Bachem (Torrance, Calif.).
(§2) PSA was purified from human seminal plasma as described in Christensson, et al. Eur. J. Biochem. 194:755-765, (1990). Plasmin, urokinase, tissue plasminogen activator (TPA), human plasma and porcine pancreatic kallikrein and a 1-antichymotrypsin were obtained from Calbiochem (San Diego, Calif.). All other proteases were obtained from Sigma Chemical Co. (St. Louis, Mo.). Mouse serum was obtained from East Acres Biologicals (South Bridge, Mass.). Goat and calf sera were obtained from Gibco BRL (Grand Island, N.Y.). Rat serum was obtained in-house from sacrificed animals. Human serum was obtained from volunteers.
(§3) Cleavage was studied by measuring fluorescence change secondary to AMC release. Fluorescence detection was carried out with a Fluoroskan II 96 well fluorometric plate reader (ICN Biomedicals, Costa Mesa, Calif.), with excitation wavelength 355 nm and emission wavelength 460 nm. Data were collected and analyzed using Deltasoft III software (Biometallics, Princeton, N.J.). All reactions were performed at room temperature by the addition of substrate and proteases into PSA buffer, described below, in a final volume of 200 μL. The results were determined from the initial linear increase of fluorescence and were expressed as the picomoles of AMC released per minute based upon comparison to a standard curve of the fluorescence of known amounts of AMC (i.e., fluorescence was linear form 20 to 300 picomoles of AMC). The data were analyzed by Lineweaver-Burke reciprocal plots to determine the Michaelis-Menten constant (i.e., Km) expressed as the amount of substrate needed to saturate half of the enzyme and the catalytic rate constant (i.e., kcat) expressed as the amount of substrate converted to product per time per amount of enzyme.
(§4) Each assay contains 200 picomoles of the particular protease and 0.2 mM concentration of the particular substrate (i.e., 40,000 picomoles/200 μL of assay volume). The amino acid sequences expressed in one letter amino acid code represent the following amino acid sequences in the three letter amino acid code: EHSSKLQ (Glu-His-Ser-Ser-Lys-Leu-Gln; SEQ ID NO:10), QNKISYQ (Gln-Asn-Lys-Ile-Ser-Tyr-Gln; SEQ ID NO:11), ENKISYQ (Glu-Asn-Lys-Ile-Ser-Tyr-Gln; SEQ ID NO:12), and ATKSKQH (Ala-Thr-Lys-Ser-Lys-Gln-His; SEQ ID NO:13). Determinations listed in the table were carried out with substrates at 0.2 mM concentration in the PSA assay buffer (50 mM Tris/0.1M NaCl pH 7.8). The entry “UD” stands for “undetectable” and means that at most, 0.1 pmole of substrate cleavage per minute per 200 pmole protease took place. Asterisks represent experiments not performed. Abbreviations are as follows: PSA (prostate specific antigen), Chymo (chymotrypsin), Urokin (urokinase), TPA (tissue plasminogen activator), Thromb (thrombin), Kallik (human kallikrein, hK1).

urokinase = molecular target: T1, urokinase (Homo sapiens, UniProt P00749); assay: as above; format: biochemical; conditions: 0.2 mM substrate, PSA assay buffer pH 7.8
T1 construct: purchased Calbiochem
Procedure: as §1, §2, §3, §4

[1] = molecular target: T2, tissue plasminogen activator (TPA) (Homo sapiens, UniProt P00750); assay: as above; format: biochemical; conditions: 0.2 mM substrate, PSA assay buffer pH 7.8
T2 construct: purchased Calbiochem
Procedure: as §1, §2, §3, §4

Trypsin = assay: as above; format: biochemical; conditions: 0.2 mM substrate, PSA assay buffer pH 7.8
Procedure: as §1, §2, §3, §4

Elastase = assay: as above; format: biochemical; conditions: 0.2 mM substrate, PSA assay buffer pH 7.8
Procedure: as §1, §2, §3, §4

chymotrypsin = molecular target: T3, chymotrypsin (Bos taurus, UniProt P00766); assay: as above; format: biochemical; conditions: 0.2 mM substrate, PSA assay buffer pH 7.8
T3 construct: purchased Sigma Chemical Co
Procedure: as §1, §2, §3, §4

Plasmin = molecular target: T4, Plasmin (Homo sapiens, UniProt P00747); assay: as above; format: biochemical; conditions: 0.2 mM substrate, PSA assay buffer pH 7.8
T4 construct: purchased Calbiochem
Procedure: as §1, §2, §3, §4

thrombin = molecular target: T5, thrombin (Homo sapiens, UniProt P00734); assay: as above; format: biochemical; conditions: 0.2 mM substrate, PSA assay buffer pH 7.8
T5 construct: purchased Sigma Chemical Co
Procedure: as §1, §2, §3, §4

[2] = Stability of PSA substrates in serum (AMC release); format: in vitro ADME; conditions: 0.2 mM substrate
Excerpt: as §2, §3
Because the prodrug can be given systemically via the blood, it is useful to determine the stability of the substrates in sera from a variety of species. The substrates and experimental details are found as described in Example 1.
The amino acid sequences expressed in one letter amino acid code represent the following amino acid sequences in the three letter amino acid code: EHSSKLQ (Glu-His-Ser-Ser-Lys-Leu-Gln; SEQ ID NO:10), QNKISYQ (Gln-Asn-Lys-Ile-Ser-Tyr-Gln; SEQ ID NO:11), ENKISYQ (Glu-Asn-Lys-Ile-Ser-Tyr-Gln; SEQ ID NO:12) and ATKSKQH (Ala-Thr-Lys-Ser-Lys-Gln-His; SEQ ID NO:13). Determinations listed in the table were carried out with substrates at 0.2 mM concentration in the PSA assay buffer (50 mM Tris/0.1M NaCl pH 7.8). AMC is 7-amino-4-methylcoumarin. The human serum used was 100% for each assay. The entry “UD” stands for “undetectable”, and means that not more than 0.01 picomole of substrate per minute was cleaved.

[3] = molecular target: T6, PSA (prostate specific antigen) (Homo sapiens, UniProt P07288); assay: Cleavage of AMC-labelled peptide substrates by purified PSA (fluorescence of released AMC; Lineweaver-Burke kinetics); format: biochemical; conditions: for picomoles of peptide cleaved/min/200 picomoles protease: PSA: pH 7.8, SKLQ, KLQ, LQ in 1.4% acetonitrile/buffer, Q-AMC in 0.2% formic acid/buffer; for Kcat / Km: PSA substrate, PSA assay buffer pH 7.8, Lineweaver-Burke
T6 construct: PSA was purified from human seminal plasma; from tissue; host or cells: human seminal plasma
Procedure: as §1, §2, §3, §4
The data in Table 2 are the results of kinetic experiments with the peptide substrates used in Example 1. Experimental details are found in Example 1.
The amino acid sequences expressed in one letter amino acid code represent the following amino acid sequences in the three letter amino acid code: EHSSKLQ (Glu-His-Ser-Ser-Lys-Leu-Gln; SEQ ID NO:10), HSSKLQ (His-Ser-Ser-Lys-Leu-Gln; SEQ ID NO:7), SKLQ (Ser-Lys-Leu-Gln; SEQ ID NO:1), and ATKSKQH (Ala-Thr-Lys-Ser-Lys-Gln-His; SEQ ID NO:13). […]

Cathepsin C = molecular target: T7, Cathepsin C (Homo sapiens, UniProt P53634); assay: PSA substrate cleavage by purified intracellular protease; format: biochemical; conditions: 0.2 mM substrate, pH 7.8; SKLQ, KLQ, LQ in 1.4% acetonitrile/buffer, Q-AMC in 0.2% formic acid/buffer
T7 construct: purchased Sigma Chemical Co
Procedure: as §3
(§5) A family of peptide substrates based upon the EHSSKLQ (SEQ ID NO:10) sequence was assayed for activity for the intracellular proteases, and the results given in Table 4.
(§6) The amino acid sequences expressed in one letter amino acid code represent the following amino acid sequences in the three letter amino acid code: EHSSKLQ (Glu-His-Ser-Ser-Lys-Leu-Gln; SEQ ID NO:10), The shorter sequences are formed by deleting amino acids from the amino terminal side of the sequence. Determinations listed in the table were carried out with substrates at 0.2 mM concentration in the PSA assay buffer (50 mM Tris/0.1M NaCl pH 7.8), except SKLQ (SEQ ID NO:1), KLQ and LQ, which were carried out in 1.4% acetonitrile/buffer and Q-AMC which was carried out in 0.2% formic acid/buffer, at pH 7.8. The entry “UD” stands for “undetectable” and means that at most, 0.1 pmole of substrate cleavage per minute per 200 pmole protease took place. Asterisks represent experiments not performed. Abbreviations are as follows: PSA (prostate specific antigen), Cath B, C, D (Cathepsins, B, C, D), Esterase (porcine liver esterase).

Cathepsin B = molecular target: T8, Cathepsin B (Homo sapiens, UniProt P07858); assay: as above; format: biochemical; conditions: 0.2 mM substrate, pH 7.8; SKLQ, KLQ, LQ in 1.4% acetonitrile/buffer, Q-AMC in 0.2% formic acid/buffer
T8 construct: purchased Sigma Chemical Co
Procedure: as §3, §5, §6

Cathepsin D = molecular target: T9, Cathepsin D (Homo sapiens, UniProt P07339); assay: as above; format: biochemical; conditions: 0.2 mM substrate, pH 7.8; SKLQ, KLQ, LQ in 1.4% acetonitrile/buffer, Q-AMC in 0.2% formic acid/buffer
T9 construct: purchased Sigma Chemical Co
Procedure: as §3, §5, §6

porcine liver esterase = assay: as above; format: biochemical; conditions: 0.2 mM substrate, pH 7.8; SKLQ, KLQ, LQ in 1.4% acetonitrile/buffer, Q-AMC in 0.2% formic acid/buffer
Procedure: as §3, §5, §6

T6 sequence (P07288 25-261): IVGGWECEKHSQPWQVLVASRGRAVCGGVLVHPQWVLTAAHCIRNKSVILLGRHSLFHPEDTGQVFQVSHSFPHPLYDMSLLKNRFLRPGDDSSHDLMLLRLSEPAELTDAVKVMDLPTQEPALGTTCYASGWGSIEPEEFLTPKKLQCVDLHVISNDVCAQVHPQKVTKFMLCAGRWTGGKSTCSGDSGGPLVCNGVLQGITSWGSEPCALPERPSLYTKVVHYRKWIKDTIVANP
T9 sequence (P07339 65-412): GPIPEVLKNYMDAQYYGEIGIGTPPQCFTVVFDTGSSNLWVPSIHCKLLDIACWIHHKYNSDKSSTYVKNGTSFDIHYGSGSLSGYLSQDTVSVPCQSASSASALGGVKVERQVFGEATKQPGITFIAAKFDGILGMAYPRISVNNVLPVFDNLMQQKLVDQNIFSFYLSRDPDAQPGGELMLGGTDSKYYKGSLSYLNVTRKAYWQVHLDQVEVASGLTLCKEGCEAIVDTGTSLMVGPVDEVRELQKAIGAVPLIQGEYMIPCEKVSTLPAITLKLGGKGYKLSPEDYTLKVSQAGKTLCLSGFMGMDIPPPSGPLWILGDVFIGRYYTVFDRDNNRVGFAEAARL
T7 sequence (P53634 25-463): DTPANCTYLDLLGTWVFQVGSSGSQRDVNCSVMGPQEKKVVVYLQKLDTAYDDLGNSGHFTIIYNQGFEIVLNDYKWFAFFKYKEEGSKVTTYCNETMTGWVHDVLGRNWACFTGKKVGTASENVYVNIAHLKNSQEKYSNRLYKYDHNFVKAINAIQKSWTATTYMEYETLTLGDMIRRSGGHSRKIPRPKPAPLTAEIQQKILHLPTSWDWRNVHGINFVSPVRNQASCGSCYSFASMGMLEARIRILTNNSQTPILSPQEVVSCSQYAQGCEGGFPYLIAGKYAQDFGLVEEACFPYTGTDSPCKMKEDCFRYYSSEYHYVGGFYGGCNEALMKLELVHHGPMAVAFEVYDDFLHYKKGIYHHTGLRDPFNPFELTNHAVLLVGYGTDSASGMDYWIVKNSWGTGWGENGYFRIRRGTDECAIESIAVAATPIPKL
T2 sequence (P00750 36-562, species assumed): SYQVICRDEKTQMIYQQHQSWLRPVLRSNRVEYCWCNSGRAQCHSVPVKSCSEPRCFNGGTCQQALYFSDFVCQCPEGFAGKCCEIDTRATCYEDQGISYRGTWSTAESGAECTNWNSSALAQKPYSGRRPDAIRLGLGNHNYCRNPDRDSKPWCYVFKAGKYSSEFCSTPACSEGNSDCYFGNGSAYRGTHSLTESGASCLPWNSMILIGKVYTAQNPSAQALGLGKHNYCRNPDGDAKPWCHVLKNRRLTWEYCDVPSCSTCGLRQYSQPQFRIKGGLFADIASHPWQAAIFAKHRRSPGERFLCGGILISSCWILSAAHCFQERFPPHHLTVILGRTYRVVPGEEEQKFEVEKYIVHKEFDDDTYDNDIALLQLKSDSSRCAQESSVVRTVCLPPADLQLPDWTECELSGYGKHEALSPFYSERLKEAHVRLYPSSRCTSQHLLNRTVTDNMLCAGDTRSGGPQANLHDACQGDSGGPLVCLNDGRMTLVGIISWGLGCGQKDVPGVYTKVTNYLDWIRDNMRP
T4 sequence (P00747 581-810 limits assumed, species assumed): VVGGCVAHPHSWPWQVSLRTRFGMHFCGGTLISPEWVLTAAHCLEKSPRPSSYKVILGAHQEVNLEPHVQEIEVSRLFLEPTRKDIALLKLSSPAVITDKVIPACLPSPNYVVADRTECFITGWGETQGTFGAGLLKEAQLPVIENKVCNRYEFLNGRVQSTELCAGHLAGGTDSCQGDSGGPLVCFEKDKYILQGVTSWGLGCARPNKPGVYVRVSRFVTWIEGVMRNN
T4 sequence (P00747 97-580 partner limits assumed, species assumed): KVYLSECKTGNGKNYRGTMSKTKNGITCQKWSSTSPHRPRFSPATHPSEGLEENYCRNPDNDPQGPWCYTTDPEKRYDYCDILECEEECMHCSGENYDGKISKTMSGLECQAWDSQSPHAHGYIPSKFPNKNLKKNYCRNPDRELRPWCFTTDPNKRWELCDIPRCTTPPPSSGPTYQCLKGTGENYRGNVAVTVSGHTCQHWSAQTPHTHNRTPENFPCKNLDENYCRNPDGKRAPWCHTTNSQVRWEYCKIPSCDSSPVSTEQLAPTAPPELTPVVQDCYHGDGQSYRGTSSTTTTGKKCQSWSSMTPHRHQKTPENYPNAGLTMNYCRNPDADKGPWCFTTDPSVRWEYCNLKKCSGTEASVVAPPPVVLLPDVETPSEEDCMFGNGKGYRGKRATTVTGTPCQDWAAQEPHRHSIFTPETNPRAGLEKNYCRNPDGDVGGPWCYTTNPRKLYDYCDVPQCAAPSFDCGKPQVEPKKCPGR

For `CC[C@H](C)[C@H](NC(=O)[C@H](CCCCN)NC(=O)[C@H](CC(N)=O)NC(=O)[C@H](CCC(=O)O)NC(=O)N1CCOCC1)C(=O)N[C@@H](CO)C(=O)N[C@@H](Cc1ccc(O)cc1)C(=O)N[C@@H](CCC(N)=O)C(=O)Nc1ccc2c(C)cc(=O)oc2c1` [ENKISYQ, Glu-Asn-Lys-Ile-Ser-Tyr-Gln] ({Morpholide-CO}-ENKISYQ-{AMC}), the “Picomoles of substrate cleaved/minute/200 pmoles of indicated protease: Kallik” value (human kallikrein, hK1) was “UD (at most, 0.1 pmole of substrate cleavage per minute per 200 pmole protease took place)”, the “Picomoles of substrate cleaved/minute/200 pmoles of indicated protease: Urokin” value (urokinase) was “UD (at most, 0.1 pmole of substrate cleavage per minute per 200 pmole protease took place)” and the “Picomoles of substrate cleaved/minute/200 pmoles of indicated protease: TPA” value [1] was “.04 picomoles/minute/200 pmoles pr”. For the same compound, the “Picomoles of substrate cleaved/minute/200 pmoles of indicated protease: Trypsin” value (Trypsin) was 1.8 picomoles/minute/200 pmoles pr, the “Picomoles of substrate cleaved/minute/200 pmoles of indicated protease: Elastase” value (Elastase) was 2.6 picomoles/minute/200 pmoles pr and the “Picomoles of substrate cleaved/minute/200 pmoles of indicated protease: Chymo” value (chymotrypsin) was 3.6 picomoles/minute/200 pmoles pr. For the same compound, the “Picomoles of substrate cleaved/minute/200 pmoles of indicated protease: Plasmin” value (Plasmin) was 0.6 picomoles/minute/200 pmoles pr, the “Picomoles of substrate cleaved/minute/200 pmoles of indicated protease: Thromb” value (thrombin) was 0.3 picomoles/minute/200 pmoles pr and the “picomles AMC released/minute: Calf” value [2] was “UD (not more than 0.01 picomole of substrate per minute was cleaved)”. For the same compound, the “picomles AMC released/minute: Fetal Calf” value [2] was 9.59 picomoles/minute, the “picomles AMC released/minute: Goat” value [2] was 3.18 picomoles/minute and the “picomles AMC released/minute: Mouse” value [2] was 3.71 picomoles/minute. The “picomles AMC released/minute: Rat” value [2] was 11.2 picomoles/minute, the “picomles AMC released/minute: Human” value ([2]; human serum 100%) was 1.27 picomoles/minute and the “Picomoles of substrate cleaved/minute/200 pmoles of indicated protease: PSA” value ([3]; 0.2 mM substrate, PSA assay buffer pH 7.8, room temperature) was 14.4 picomoles/minute/200 pmoles pr.
For `Cc1cc(=O)oc2cc(NC(=O)[C@H](CCC(N)=O)NC(=O)[C@H](CC(C)C)NC(=O)[C@H](CCCCN)NC(=O)[C@H](CO)NC(=O)[C@H](CO)NC(=O)[C@H](Cc3c[nH]cn3)NC(=O)N3CCOCC3)ccc12` [HSSKLQ, His-Ser-Ser-Lys-Leu-Gln] ({Morpholide-CO}-HSSKLQ-{AMC}), the “picomoles of peptide cleaved/min/200 picomoles protease: Cath C” value (Cathepsin C) was “UD (at most, 0.1 pmole of substrate cleavage per minute per 200 pmole protease took place)”, the “picomoles of peptide cleaved/min/200 picomoles protease: Cath B” value (Cathepsin B) was 17.3 picomoles/min/200 picomoles pr and the “picomoles of peptide cleaved/min/200 picomoles protease: Cath D” value (Cathepsin D) was 3.8 picomoles/min/200 picomoles pr. The “picomoles of peptide cleaved/min/200 picomoles protease: Esterase” value (porcine liver esterase) was “UD (at most, 0.1 pmole of substrate cleavage per minute per 200 pmole protease took place)”, the “picomoles of peptide cleaved/min/200 picomoles protease: PSA” value ([3]; 0.2 mM substrate) was 62.7 picomoles/min/200 picomoles pr and the Kcat [3] was 0.011 s⁻¹. For the same compound, the Km [3] was 470 µM.
With `Cc1cc(=O)oc2cc(NC(=O)[C@H](CCC(N)=O)NC(=O)[C@H](CC(C)C)NC(=O)[C@H](CCCCN)NC(=O)[C@H](CO)NC(=O)N3CCOCC3)ccc12` [SKLQ, Ser-Lys-Leu-Gln] ({Morpholide-CO}-SKLQ-{AMC}) the “picomoles of peptide cleaved/min/200 picomoles protease: Cath C” value (Cathepsin C) was “UD (at most, 0.1 pmole of substrate cleavage per minute per 200 pmole protease took place)”, the “picomoles of peptide cleaved/min/200 picomoles protease: Cath B” value (Cathepsin B) was 31.2 picomoles/min/200 picomoles pr and the “picomoles of peptide cleaved/min/200 picomoles protease: Cath D” value (Cathepsin D) was 6.4 picomoles/min/200 picomoles pr. For the same compound, the “picomoles of peptide cleaved/min/200 picomoles protease: Esterase” value (porcine liver esterase) was “UD (at most, 0.1 pmole of substrate cleavage per minute per 200 pmole protease took place)”, the “picomoles of peptide cleaved/min/200 picomoles protease: PSA” value ([3]; 0.2 mM substrate) was 29.6 picomoles/min/200 picomoles pr and the Kcat [3] was 0.020 s⁻¹. The Km [3] was 813 µM.
